For one assay, the system named is MCF7. Description: Cytotoxicity against human MCF7 cells. Format: functional, cell-based.
Assay [1] deals with Ehrlich. Put plainly: Cytotoxicity against mouse Ehrlich ascites cells assessed as dead cells at 100 ug/ml. Format: functional. The following applies: dose 100 µg/ml.
Assay [2] deals with Ehrlich. Description: Cytotoxicity against mouse Ehrlich ascites cells assessed as dead cells at 500 ug/ml. The following applies: dose 500 µg/ml. Format: functional.
In assay [3] the test system is Ehrlich. Description: Cytotoxicity against mouse Ehrlich ascites cells assessed as dead cells at 25 ug/ml. Format: functional. The following applies: dose 25 µg/ml.
The nature of assay [4]: Antioxidant activity assessed as DPPH radical scavenging activity. Format: functional.
Another assay concerns Aspergillus niger. Put plainly: Antifungal activity against Aspergillus niger. Format: functional.
For another assay, the system named is Staphylococcus aureus. Description: Antibacterial activity against Staphylococcus aureus. Format: functional.
The test system of another assay is Bacillus subtilis. Put plainly: Antibacterial activity against Bacillus subtilis. Format: functional.
The species named for a further assay is Ovis aries. Put plainly: Selectivity index, ratio of IC50 for ovine COX-1 to IC50 for ovine COX-2.
Assay [5] deals with Rattus norvegicus. Put plainly: Antiinflammatory activity against rat assessed as inhibition of carrageenan-induced paw edema relative to control. Format: functional. The arrangement: concentration or dose not given beside the values. On the technique in general: The carrageenan paw model is a standard test of acute inflammation.
Assay [6] is described as follows: Antioxidant activity assessed as ABTS radical scavenging activity. Format: functional.
Another assay concerns Escherichia coli. Put plainly: Antibacterial activity against Escherichia coli. Format: functional.
For another assay, the system named is Streptococcus pyogenes. Put plainly: Antibacterial activity against Streptococcus pyogenes. Format: functional.
The test system of the next assay is Pseudomonas aeruginosa. Put plainly: Antibacterial activity against Pseudomonas aeruginosa. Format: functional.
For the next assay, the system named is Candida albicans. Put plainly: Antifungal activity against Candida albicans. Format: functional.
Assay [7] has as its system Rattus norvegicus. Put plainly: Antiinflammatory activity against rat assessed as inhibition of carrageenan-induced paw edema. Format: functional.

Values after ≈ are worked out from the molar mass of the structure shown.

For the compound `Cc1c(-n2cc(C#N)c(=O)n(-c3ccccc3)c2=N)c(=O)n(-c2ccccc2)n1C`, the half-maximal inhibitory concentration (IC50) (commonly the concentration that inhibits the measured activity by half) in the assay on MCF7 stood at 54.2 µM.

Regarding `CC1=NNC(=O)/C1=N/Nc1sc2c(c1C#N)CCCC2`, the Activity amounted to 84% in the assay on Ehrlich [1], 53.3% in the assay on Ehrlich [2] and 29.8% in the assay with Ehrlich [3].

With `Cc1c(/N=C/c2cc(O)ccc2O)c(=O)n(-c2ccccc2)n1C`, the half-maximal inhibitory concentration (IC50) in assay [4] was found to be 17.1 µM.

`Cc1c(-n2cc(C#N)c(=O)n(-c3ccc(S(=O)(=O)c4ccc(-n5c(=O)c(C#N)cn(-c6c(C)n(C)n(-c7ccccc7)c6=O)c5=S)cc4)cc3)c2=S)c(=O)n(-c2ccccc2)n1C` displayed an IC50 in the assay with MCF7 of 37.2 µM.

As to `NC(=O)c1c(N/N=C2/C(=O)NN=C2N)sc2c1CCCC2`, the Activity with Ehrlich [1] was 98.4%; in the assay on Ehrlich [2] it was 81%; in the assay with Ehrlich [3] it was 65%.

Consider `NC1=NNC(=O)C1(CCS(=O)(=O)c1ccccc1)CCS(=O)(=O)c1ccccc1`, for which the minimal inhibitory concentration (MIC) in the assay with Aspergillus niger, in the assay on Staphylococcus aureus and with Bacillus subtilis was 100 µg/mL (≈ 230 µM) throughout.

For `CCCCNc1nc2ccccc2n1C1=NN=C(O)C1`, the Ratio IC50 in the assay listed under Ovis aries was determined as 4.84. The Activity with Rattus norvegicus [5] is given as 61%.

For the compound `CC1=NN(c2ccc([N+](=O)[O-])cc2[N+](=O)[O-])C(=O)C1c1cc(-c2ccc(N(C)C)cc2)nc(N)n1` (stereo unspecified), the Activity in the assay with Rattus norvegicus [5] came out at 62.05%.

In the case of `CC1=NN(c2nc(-c3ccccc3)cs2)C(=O)C1C(=S)Nc1ccccc1` (stereo unspecified), the Activity in assay [6] turned out to be 88.6%.

For the compound `CCCC1=NN(c2c(F)c(F)cc(F)c2F)C(=O)/C1=C\c1cn(-c2ccccc2)nc1-c1cccs1`, the MIC (commonly the lowest concentration found to suppress growth) in the assay with Escherichia coli was 200 µg/mL (≈ 392 µM); against Streptococcus pyogenes it was 62.5 µg/mL (≈ 122 µM); in the assay with Aspergillus niger it was greater than 1000 µg/mL; in the assay with Pseudomonas aeruginosa it was 250 µg/mL (≈ 490 µM); against Candida albicans, greater than 1000 µg/mL; in the assay with Staphylococcus aureus it was 125 µg/mL (≈ 245 µM). In the assay on Bacillus subtilis, 125 µg/mL (≈ 245 µM) was the least that counted as inhibitory (MIC).

With `CCCC1=NN(c2c(F)c(F)cc(F)c2F)C(=O)/C1=C\c1cn(-c2ccccc2)nc1-c1ccc(Cl)cc1`, the minimal inhibitory concentration (MIC) against Escherichia coli was 62.5 µg/mL (≈ 116 µM); in the assay on Streptococcus pyogenes it was 100 µg/mL (≈ 186 µM); in the assay with Aspergillus niger it was greater than 1000 µg/mL; against Pseudomonas aeruginosa, 200 µg/mL (≈ 371 µM); with Candida albicans, 1000 µg/mL (≈ 1860 µM); against Staphylococcus aureus, 100 µg/mL (≈ 186 µM). The minimum inhibitory concentration (MIC) against Bacillus subtilis amounted to 100 µg/mL (≈ 186 µM).

On to `Nc1cc(=O)n(C(=O)CN2N=C(C(F)(F)F)/C(=N/Nc3ccc(Br)cc3)C2=O)[nH]1`, for which the MIC against Escherichia coli was 13.3 µg/mL (≈ 28 µM); in the assay with Aspergillus niger, 7.52 µg/mL (≈ 15.9 µM); against Pseudomonas aeruginosa it was 10.2 µg/mL (≈ 21.6 µM); in the assay with Candida albicans, 8.58 µg/mL (≈ 18.1 µM); in the assay with Staphylococcus aureus, 7.96 µg/mL (≈ 16.8 µM).

Consider `Cc1[nH]n(-c2ccccc2)c(=O)c1CNC(=S)Nc1ccccc1`, for which the Ratio IC50 in the assay listed under Ovis aries was determined as 400. Besides, in the assay on Rattus norvegicus [5], the Activity is 91%. The ED50 (commonly the dose at which the effect has come halfway, by size or by number of responders) in the assay on Rattus norvegicus [7] came out at 102 mg/kg.

For the compound `CC1=NN(c2ccccc2)C(=O)C1c1cc(-c2ccc(N(C)C)cc2)nc(N)n1` (stereo unspecified), the Activity in the assay on Rattus norvegicus [5] is given as 62%.

In turn, `Cc1c(-n2cc(C#N)c(=O)n(-c3ccccc3)/c2=N\c2ccccc2)c(=O)n(-c2ccccc2)n1C` yielded a half-maximal inhibitory concentration (IC50) in the assay on MCF7 of 45 µM.

On to `N#Cc1c(N/N=C2/C(=O)NN=C2N)sc2c1CCCC2`, for which the figures for the Activity with Ehrlich [1], in the assay on Ehrlich [2] and in the assay on Ehrlich [3] were 100%, 98.6% and 94%, respectively.

On to `CCOc1ccc(N/N=C2\C(=O)N(CC(=O)n3[nH]c(N)cc3=O)N=C2C(F)(F)F)cc1`, for which the MIC worked out at 26.7 µg/mL (≈ 60.8 µM) with Escherichia coli; 6.28 µg/mL (≈ 14.3 µM) in the assay on Aspergillus niger; 11.9 µg/mL (≈ 27.1 µM) in the assay on Pseudomonas aeruginosa; 9.08 µg/mL (≈ 20.7 µM) with Candida albicans; 12 µg/mL (≈ 27.4 µM) with Staphylococcus aureus.

On to `COc1ccc(-c2cc(C3C(=O)N(c4ccccc4)N=C3C)nc(N)n2)cc1` (stereo unspecified), for which, in the assay on Rattus norvegicus [5], the Activity is 61.02%.

Take `Nc1cc(=O)n(C(=O)CN2N=C(C(F)(F)F)/C(=N/Nc3ccc(Cl)cc3)C2=O)[nH]1`: the MIC in the assay with Escherichia coli was determined as 12.7 µg/mL (≈ 29.5 µM); against Aspergillus niger, 6.8 µg/mL (≈ 15.8 µM); with Pseudomonas aeruginosa it was 7.39 µg/mL (≈ 17.2 µM); against Candida albicans, 6.18 µg/mL (≈ 14.4 µM); with Staphylococcus aureus, 7.3 µg/mL (≈ 17 µM).

Turning to `COc1cc(-c2cc(C3C(=O)N(c4ccc([N+](=O)[O-])cc4[N+](=O)[O-])N=C3C)nc(N)n2)ccc1O` (stereo unspecified), the Activity with Rattus norvegicus [5] amounted to 62.51%.

Consider `O=C1/C(=C2/CN(c3ccccc3)N=C2c2ccccc2)C(c2ccccc2)=NN1c1ccccc1`, for which the MIC against Escherichia coli was determined as 4.08 µg/mL (≈ 8.98 µM); against Aspergillus niger, 5.1 µg/mL (≈ 11.2 µM); with Bacillus subtilis it was 10 µg/mL (≈ 22 µM).

For the compound `Cc1c(/N=C/c2ccc(O)cc2O)c(=O)n(-c2ccccc2)n1C`, the half-maximal inhibitory concentration (IC50) in assay [4] was 20.1 µM.

Regarding `Cc1c(-n2cc(C#N)c(=O)n(-c3ccc(Br)cc3)c2=S)c(=O)n(-c2ccccc2)n1C`, inhibition with MCF7 was half-maximal at 43.4 µM (IC50).

For the compound `Cc1c(-n2cc3c(N)nnc-3n(-c3ccccc3)/c2=N\N)c(=O)n(-c2ccccc2)n1C`, the half-maximal inhibitory concentration (IC50) in the assay with MCF7 worked out at 45 µM.

The values above are taken from ChEMBL document CHEMBL5233210, “Pyrazolone structural motif in medicinal chemistry: Retrospect and prospect” (Eur J Med Chem, 2020).
